In ChEMBL document CHEMBL3045597, “Antihyperglycemic, -glucosidase inhibitory and DPPH free radical scavenging activity of 5-bromosalicylaldehyde and schiff bases” (Med Chem Res, 2011):
Blank lines part the entries; values can stand above or below the compound they belong to. Activity calls are given as the source filed them. The rule behind the calls is not given here.

Legend:
[1] = target: Lysosomal alpha-glucosidase (Rattus norvegicus) (UniProt Q6P7A9); experiment: Inhibition of rat intestinal alpha-glucosidase using p-nitrophenyl- alpha-D-glucopyranoside as substrate at 300 uM preincubated for 5 min before addition of substrate measured after 10 min
[2] = tested on: Rattus norvegicus; experiment: Antihyperglycemic activity in starch fed Rattus norvegicus Wistar (rat) assessed as reduction of plasma glucose level at 50 mg/kg administered 15 min before starch feeding measured up to 60 min; assay type: functional, organism-based; parameters: dose 50 mg/kg
[3] = target: Lysosomal alpha-glucosidase (Rattus norvegicus) (UniProt Q6P7A9); experiment: Inhibition of rat intestinal alpha-glucosidase using p-nitrophenyl- alpha-D-glucopyranoside as substrate at 200 uM preincubated for 5 min before addition of substrate measured after 10 min
[4] = tested on: Rattus norvegicus; experiment: Antihyperglycemic activity in starch fed Rattus norvegicus Wistar (rat) assessed as reduction of AUC of plasma glucose level at 50 mg/kg administered 15 min before starch feeding; assay type: functional, organism-based; parameters: dose 50 mg/kg
[5] = tested on: Radical scavenging activity; experiment: Antioxidant activity assessed as DPPH free radical scavenging activity at 250 uM after 20 min; assay type: functional
[6] = tested on: Radical scavenging activity; experiment: Antioxidant activity assessed as DPPH free radical scavenging activity by measuring 50% radical scavenging concentration after 20 min; assay type: functional

Lysosomal alpha-glucosidase (Rattus norvegicus), sequence (Q6P7A9 whole entry): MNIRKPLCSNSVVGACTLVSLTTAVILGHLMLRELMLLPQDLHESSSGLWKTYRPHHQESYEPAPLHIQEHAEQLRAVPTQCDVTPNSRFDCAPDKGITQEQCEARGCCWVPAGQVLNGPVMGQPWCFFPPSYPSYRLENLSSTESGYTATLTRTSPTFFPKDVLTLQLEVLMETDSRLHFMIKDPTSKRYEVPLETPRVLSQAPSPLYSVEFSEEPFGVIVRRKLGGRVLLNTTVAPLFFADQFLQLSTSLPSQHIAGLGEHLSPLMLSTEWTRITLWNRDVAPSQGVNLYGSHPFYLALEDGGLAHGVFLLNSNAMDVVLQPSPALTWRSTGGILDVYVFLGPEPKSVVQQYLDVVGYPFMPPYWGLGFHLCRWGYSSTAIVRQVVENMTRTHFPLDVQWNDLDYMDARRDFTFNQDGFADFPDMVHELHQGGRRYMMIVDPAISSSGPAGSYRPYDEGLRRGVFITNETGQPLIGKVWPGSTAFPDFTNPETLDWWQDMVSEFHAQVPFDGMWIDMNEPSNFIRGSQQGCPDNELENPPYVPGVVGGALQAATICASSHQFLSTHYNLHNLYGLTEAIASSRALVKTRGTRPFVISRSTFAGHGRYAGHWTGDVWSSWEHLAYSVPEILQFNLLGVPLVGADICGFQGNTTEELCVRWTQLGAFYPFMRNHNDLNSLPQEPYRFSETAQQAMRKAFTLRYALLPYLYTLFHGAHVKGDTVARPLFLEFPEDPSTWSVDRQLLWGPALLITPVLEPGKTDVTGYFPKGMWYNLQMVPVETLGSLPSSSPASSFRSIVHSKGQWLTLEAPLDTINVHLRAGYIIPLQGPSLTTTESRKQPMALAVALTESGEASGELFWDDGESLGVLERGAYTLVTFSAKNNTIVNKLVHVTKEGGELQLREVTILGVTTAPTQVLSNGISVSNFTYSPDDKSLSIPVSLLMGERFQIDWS

Structure (SMILES): O=Cc1cc(Br)ccc1O
inhibition [1]: 85.8%
Activity [2]: Active
inhibition [3]: 85.8%
Activity [4]: Active

Structure (SMILES): COc1ccc(/N=C/c2cc(Br)ccc2O)cc1
Activity [5]: 48.7%
inhibition [3]: Active

Structure (SMILES): Oc1ccc(Br)cc1/C=N/c1ccccc1
Activity [5]: 9.27%
inhibition [3]: Active

Structure (SMILES): Oc1ccccc1/C=N\c1ccccc1/N=C/c1ccccc1O
Activity [6]: 115 µM
Activity [5]: 75.3%
inhibition [3]: 57.9%

Structure (SMILES): Oc1ccc(Br)cc1/C=N/c1ccc(Cl)cc1
Activity [5]: 13.5%
inhibition [3]: inactive

Structure (SMILES): O=[N+]([O-])c1ccc(/N=C/c2cc(Br)ccc2O)cc1
Activity [5]: inactive
inhibition [3]: Active

Structure (SMILES): Oc1ccc(Br)cc1/C=N/CC/N=C/c1cc(Br)ccc1O
Activity [5]: inactive
inhibition [3]: 14.4%

Structure (SMILES): Oc1ccccc1/C=N/CC/N=C/c1ccccc1O
Activity [5]: inactive
inhibition [3]: 29.1%

The next lines start with results.

inhibition [3]: 31.6%
Structure (SMILES): C/C(=N\NC(=O)c1ccccc1)c1ccc(C)cc1

inhibition [3]: Active
Structure (SMILES): C/C(=N\CC/N=C(\C)c1ccccc1)c1ccccc1

inhibition [3]: 11.4%
Structure (SMILES): COc1ccc(/N=C/c2ccccc2O)cc1

inhibition [3]: Active
Structure (SMILES): Oc1ccccc1/C=N/c1ccccc1
Activity [5]: 9.29%

inhibition [3]: 95.6%
Structure (SMILES): O=[N+]([O-])c1ccc(/N=C/c2ccccc2O)cc1
Activity [5]: inactive

inhibition [3]: 6.63%
Structure (SMILES): Oc1ccccc1/C=N/c1ccc(Cl)cc1
Activity [5]: inactive
